Assay results published in the NIST ThermoML archive (doi:10.1021/acs.jced.9b00540).

Legend:
[1] = Liquid, Falling or rolling sphere viscometry
[2] = xn = mol fraction of the nth substance listed; conditions: Liquid, x2 = 0

CCOC(F)(C(F)(F)C(F)(F)C(F)(F)F)C(F)(C(F)(F)F)C(F)(F)F (stereo not given) [2-trifluoromethyl-3-ethoxydodecafluorohexane]
viscosity [mPa·s], [1]
Conditions	100 kPa	20000 kPa	40000 kPa	60000 kPa	80000 kPa	100000 kPa
293.15 K	1.369	1.894	2.645	3.622	4.894	6.553
313.15 K	0.983	1.356	1.869	2.51	3.31	4.307
333.15 K	0.739	1.032	1.41	1.87	2.427	3.105
353.15 K	0.576	0.799	1.084	1.418	1.808	2.265

CC(C)OC(C)C [diisopropyl ether]
viscosity [mPa·s], [1]
Conditions	100 kPa	20000 kPa	40000 kPa	60000 kPa	80000 kPa	100000 kPa
293.15 K	0.33	0.396	0.466	0.542	0.625	0.715
313.15 K	0.27	0.332	0.392	0.454	0.52	0.588
333.15 K	0.225	0.282	0.342	0.402	0.46	0.517
353.15 K	–	0.258	0.308	0.358	0.408	0.457

CC(C)OC(C)C [diisopropyl ether] + CCOC(F)(C(F)(F)C(F)(F)C(F)(F)F)C(F)(C(F)(F)F)C(F)(F)F
viscosity [mPa·s], [2]
Conditions	293.15 K	313.15 K	333.15 K	353.15 K
100 kPa, Capillary tube (Ostwald / Ubbelohde) method	0.33	0.27	0.225	–
20000 kPa, Falling or rolling sphere viscometry	0.396	0.332	0.282	0.258
40000 kPa, Falling or rolling sphere viscometry	0.466	0.392	0.342	0.308
60000 kPa, Falling or rolling sphere viscometry	0.542	0.454	0.402	0.358
80000 kPa, Falling or rolling sphere viscometry	0.625	0.52	0.46	0.408
100000 kPa, Falling or rolling sphere viscometry	0.715	0.588	0.517	0.457
